Values after ≈ are worked out from the molar mass of the structure shown. Where two headings read alike, the source gives them in different places.
What was measured:
[1] = system: G. lamblia GS trophozoites; test: Trophozoite growth inhibition, ATP content (ATPlite) assay; type: cell-based, Giardia lamblia; details: Giardia duodenalis, 72 h, read-out: Mean [IC50 ± SE(IC50)] G. lamblia GS
Method: Antigiardia assays followed by enzyme inhibition determination facilitated the selection of compounds for permeation and stability studies by in vitro methods, prior to advancing to in vivo studies. Compound potency was evaluated first by measuring G. lamblia trophozoite growth as a function of the compound concentration and calculating the IC50 values. Potency in Entamoeba histolytica trophozoites was also determined because of the early report that fumagillin cured amebiasis ([19]). The intent was to test whether the compounds would be suitable to treat gastrointestinal amebiasis rather than the invasive form of the disease, given that the designed strategy was based on reducing compound permeation across the epithelial cell barrier. […] Trophozoite growth was determined by monitoring the ATP cell content using a high-throughput homogeneous assay developed previously for G. lamblia ([57]). The ATP content serves as a marker of cell integrity since ATP degrades rapidly when cells die and the luminescence signal generated by luciferase requires ATP. The same assay was also adopted in 96-well plates for E. histolytica trophozoite growth measurement, as described in Materials and Methods. A similar E. histolytica trophozoite ATP content assay was described previously ([58]). Fumagillin, TNP-470, and a standard-of-care drug (metronidazole) served as positive controls, and cells without the drug (in the presence of 0.5% dimethyl sulfoxide [DMSO]) served as the negative control.
Trophozoites of G. lamblia isolates WB and GS were grown anaerobically in borosilicate glass screw-cap culture tubes (Fisher Scientific) at pH 7.0 in Keister’s modified TYI-S-33 medium (ATCC). The medium was supplemented with 10% heat-inactivated bovine serum (Sigma-Aldrich) and 0.05% bovine bile (Sigma-Aldrich). To attain low-oxygen-tension conditions, the tubes were filled to 85% to 90% of their total volume capacity and incubated without shaking at 37°C. Subcultures (2 × 10^5 trophozoites per tube) were made three times a week. Detachment of trophozoites for inoculation was achieved by chilling the cultures on ice for 20 min. Culturing and detachment of metronidazole-resistant G. lamblia assemblage A 713M3 and assemblage B 1279-M1 trophozoites followed the same protocol, except that the growth medium was supplemented with metronidazole, with the concentration gradually being increased to 10 μM.
The growth inhibition assays were performed in duplicate, once for each compound, for all compounds except fumagillin, which served as a positive control and whose inhibitory ability was measured multiple times as new sets of compounds were tested. All dry compounds except for fumagillin were dissolved in dimethyl sulfoxide (DMSO; Sigma) at a stock concentration of 10 mM and then diluted 1:100 in growth medium to a final compound concentration of 100 μM; fumagillin was diluted to 20 μM. Compound solution aliquots (100 μl) were prepared by 3-fold serial dilutions in growth medium containing 0.5% DMSO and distributed into 96-well assay plates. This was followed by the addition of 10 μl G. lamblia or E. histolytica culture containing 10,000 trophozoites. Fumagillin served as a positive control, and the medium-diluted DMSO alone served as a negative control. The assay plates were placed in a BD GasPak EZ container system (BD Diagnostics) to create an anaerobic growth environment. The sealed containers were incubated at 37°C for 72 h. Following incubation, 70 μl/well of the ATPlite reagent (PerkinElmer) was added to the assay plates for one-step lysis and ATP level detection. The luminescent signals of the assay plates were measured on an EnSpire 2300 plate reader (PerkinElmer). Concentration-response titration points for each compound were fitted to a 4-parameter logistic nonlinear regression model using the KaleidaGraph tool, yielding the IC50 value and standard error (SE).

CHO-K1 (CHO) cells = test: CHO cell cytotoxicity, ATP content assay; type: cell-based; details: for IC50: Cricetulus griseus, CHO, 48 h, read-out: IC50 CHO
Method: Cytotoxicity in CHO-K1 (CHO) cells was also determined using the homogeneous ATP content assay with an ATPlite kit, to enable comparison with the IC50 values in the G. lamblia and E. histolytica trophozoites and provide an initial estimate of toxicity risk. Fumagillin served as a comparative control, untreated cells (including 0.5% DMSO) served as a negative control, and puromycin served as a positive control.
CHO cells (180 μl) were seeded at a density of 5,000 cells/well and incubated for 24 h at 37°C in a 5% CO2 incubator in a 96-well plate. The cells were treated with 20 μl fumagillin or fumagillol derivative solutions diluted to obtain final concentrations of 100, 30, 10, 3, 1, and 0.3 μM. Puromycin was diluted from 10 through 0.03 μM. The plates were incubated for 48 h at 37°C in a 5% CO2 incubator. One hundred microliters per well of ATPlite luminescence reagent was added to the plates, the plates were incubated at room temperature for 30 min, and the luminescence signal was measured. The assay was performed in duplicate.

[2] = system: E. histolytica HM1:IMSS trophozoites; test: Trophozoite viability MLC determination (ameba assay); type: cell-based, Entamoeba histolytica; details: 3 days treatment, 3 days proliferation without drug
Method: The inhibition of metabolism enables the organism to resume proliferation once treatment is completed. To discriminate between the lethality of the promising compounds and the induction of metabolic inactivity by the promising compounds, the minimum lethal concentration (MLC) values were determined by treating the trophozoites with the test compounds for 3 days and transferring the resulting cultures to medium lacking the compounds for 3 days of proliferation. This assay was described previously for G. lamblia ([18]) and was adapted to E. histolytica in the current study. In addition to measuring MLC values in the G. lamblia WB and GS strains and in E. histolytica, the MLCs were also measured in metronidazole-resistant G. lamblia strains 713M3 and 1279-M1, to confirm that these compounds were also effective when the metronidazole resistance mechanism evolved. […] Thus, even though fumagillin is a potent anti-G. lamblia drug, it might act in part by metabolic inhibition. Fumagillin’s IC50 and MLC values in E. histolytica were within the same range, supporting the true killing mechanism.
E. histolytica strain HM1:IMSS trophozoites were grown at 37°C in TYI-S-33 medium supplemented with penicillin (100 U/ml) and streptomycin sulfate (100 μg/ml) ([65]). Trophozoites were grown anaerobically in borosilicate tubes or T25 flasks, and subcultures were made 1 to 2 times a week. Trophozoites were detached for inoculation by chilling the cultures on ice for 20 min.
For the MLC assay, compounds were prepared as described above by 2-fold serial dilutions in fresh growth medium, and 50 μl was transferred into the wells of a 96-well plate in duplicate. Confluent E. histolytica trophozoites were diluted in growth medium to a density of 200 cells/μl. Fifty-microliter cultures were distributed in each well to bring the total assay volume to 100 μl. The plates were kept under an anaerobic environment for 72 h at 37°C. Each well was surveyed under a microscope to visualize trophozoite survival, mobility, and attachment. In all cases, duplicate measurements yielded identical growth/death transitions. The plates were chilled on ice for 30 min, and the entire content of each of 4 wells within the growth/death transition of one of the duplicate experiments was transferred for proliferation into 8-ml tubes containing growth medium and no drug. The tubes were incubated under anaerobic condition for 3 days at 37°C and checked under a microscope. The MLC value was the concentration in the tube with the lowest compound concentration without any live organism.

[3] = trophozoite growth, ATP content

Structure (SMILES)	IC50 [1, 3]	IC50 (CHO-K1 (CHO) cells; cytotoxicity, ATP content)	MLC E. histolytica HM:IMSS [2]	IC50 (CHO-K1 (CHO) cells)	IC50 [1]	selectivity, IC50 for CHO cells/IC50 for amebae (CHO-K1 (CHO) cells; vs E. histolytica)	selectivity, IC50 for CHO cells/IC50 for giardia (CHO-K1 (CHO) cells; vs G. lamblia trophozoites)
COC1C(OC(=O)NC(=O)CN2CCOCC2)CCC2(CO2)C1C1(C)OC1CC=C(C)C (stereo not shown) [Compound 3]	1.5 ± 0.1 nM	> 100000 nM	3.9 nM (≈ 1.76 ng/mL)	–	–	–	–
COC1C(OC(=O)NC(=O)CN2CCC(O)CC2)CCC2(CO2)C1C1(C)OC1CC=C(C)C (stereo not shown) [Compound 4]	4.6 ± 0.4 nM	> 100000 nM	7.8 nM (≈ 3.64 ng/mL)	–	–	–	–
CO[C@@H]1[C@H](OC(=O)Nc2ccc(C(=O)O)cc2)CC[C@]2(CO2)[C@H]1[C@@]1(C)O[C@@H]1CC=C(C)C [Compound 9, 4-(((((3R,4S,5S,6R)-5-methoxy-4-((2R,3R)-2-methyl-3-(3-methylbut-2-en-1-yl)oxiran-2-yl)-1-oxaspiro[2.5]octan-6-yl)oxy)carbonyl)amino)benzoic acid]	3.8 ± 0.6 nM	–	31.3 nM (≈ 13.9 ng/mL)	> 100000 nM	–	–	–
CCOC(=O)Cc1ccc(NC(=O)OC2CCC3(CO3)C(C3(C)OC3CC=C(C)C)C2OC)cc1 (stereo not shown) [Compound 11]	3.1 ± 0.5 nM	> 100000 nM	125 nM (≈ 60.9 ng/mL)	–	–	–	–
COC1C(OC(=O)N2CCC(O)CC2)CCC2(CO2)C1C1(C)OC1CC=C(C)C (stereo not shown) [Compound 16]	1.2 ± 0.04 nM	> 100000 nM	3.9 nM (≈ 1.6 ng/mL)	–	–	–	–
CO[C@@H]1[C@H](OC(=O)/C=C/C=C/C=C/C=C/C(=O)O)CC[C@]2(CO2)[C@H]1[C@@]1(C)O[C@@H]1CC=C(C)C [Fumagillin, reference compound]	–	–	78 nM (≈ 35.8 ng/mL)	> 100000 nM	9 ± 2.2 nM	–	–
Cc1ncc([N+](=O)[O-])n1CCO [Metronidazole, reference compound]	12700 ± 1340 nM	–	1,500 nM	–	–	> 10	< 10
